Tests used:
Acute toxicity in mice = settings: mouse, in vivo, sc; subcutaneously; mice S, males 22-24 gram
Source text: The anti-tumor compounds described herein have also been studied from the standpoint of toxicity and the conclusion drawn that they are not toxic to mammalian hosts. The toxicological data set forth in Table IX, below, supports this conclusion.

[1] = test system: EST: Ehrlich's solid tumor; assay: Effect on course of transplanted Ehrlich's solid tumor in mice; assay type: in vivo, mouse (H); settings: days 5,7,9,12; for Relative tumour size (% of control value): assessed day 14
Source text: (§1) The therapeutic effect of the described compounds on transplanted tumors in experimental animals is shown in Tables 1-3, on the following five pages.
(§2) &=statistically significant differences versus control at P=0.05
EST: Ehrlich's solid tumor in H mice

Sa37 ascitic tumor = assay: Effect on course of transplanted Sa37 ascitic tumor in mice; assay type: in vivo, mouse (H); settings: p.o. 3×75 mg/kg, days 1,4,7
Source text: as §1, §2
Sa37 : Ascitic tumors in H mice

Yoshida's ascitic tumor = assay: Effect on course of transplanted Yoshida's ascitic tumor in rats; assay type: in vivo, rat (Wistar); settings: for % of animals surviving day 35 after transplantation: control K = 0%
Source text: as §1, §2
Y: Yoshida's ascitic tumor in Wistar rats

[2] = test system: HK: solid tumors, originally spontaneous mammary-gland adenocarcinoma; assay: Effect on course of transplanted HK solid mammary-gland adenocarcinoma in mice; assay type: in vivo, mouse (H); settings: for Relative tumour size (% of control value): assessed day 14
Source text: as §1, §2
HK: Solid tumors, originally spontaneous mammary-gland adenocarcinoma in H mice

[3] = test system: Kr2: Krebs' ascitic tumor; assay: Effect on course of transplanted Krebs' ascitic tumor in mice; assay type: in vivo, mouse (H); settings: p.o. 2×150 mg/kg, days 1,8, significant (&)
Source text: as §1, §2
Kr2 : Krebs' ascitic tumor in H mice

La leukaemia = assay: Effect on course of transplanted La leukaemia in mice; assay type: in vivo, mouse (C57 Bl)
Source text: as §1, §2
La: La leukaemia in mice C57 Bl

L1210 leukaemia = assay: Effect on course of transplanted L1210 leukaemia in mice; assay type: in vivo, mouse (hybrid DBA/H); settings: days 1;5;8;12;15;19
Source text: as §1, §2
L1210 : Leukaemia growing in the form of ascitic tumors in hybrid DBA/H mice

Yoshida's Tumor = assay: Inhibition of incorporation of labelled substrates in Yoshida's tumor; assay type: cell-based; settings: Rattus norvegicus, (U-14C) amino acid mixture, Table VI, read-out: IC50 (concentration lowering initial rate of 14C incorporation to 50% of control)
Source text: Tumor growth may be observed clinically or in experiments in vivo, that is, with experimental animals, or in vitro, for example, in tissue cultures prepared from tumors. Assessment of tumor growth may be effected by measuring the weight of the tumor mass or, more effectively, by measuring the radioactivity after incorporation therein of certain substances of natural origin such as amino acids, adenine, thymidine and the like labelled with radioactive atoms such as ^14 C, ^3 H, etc.
Thus, by way of exemplification, the IC^50 values (inhibitory concentration which lowered the initial rate of ^14 C incorporation to 50% of control) are shown in Table VI, below (Yoshida's Tumor, (U-^14 C) amino acid mixture)
The ^IC 50 values of compound 13468 are also shown in Table VII with varying substrates.

[4] = p.o. 4×100 mg/kg, significant (&)
[5] = o. (oral) 3×50 mg/kg, days 1,4,8, significant (&)
[6] = o. (oral) 3×75 mg/kg, days 1,4,8, significant (&)
[7] = p.o. 2×150 mg/kg, days 5,12, significant (&)
[8] = p.o. 4×100 mg/kg, days 5,7,9,12, significant (&)

With `CN(C)CCCOc1cc2c(c3ccccc13)-c1ccccc1C2=O.Cl` [compound 13466, 5-(3-Dimethylaminopropoxy)-7-oxo-7H-benzo(c) fluorene hydrochloride] as the compound, how does the LD50 (Acute toxicity in mice) read?
The LD50 was 320 mg/kg.

What about the “Relative tumour size (% of control value)” value ([1]; p.o. 4×50 mg/kg, marked ^) of the same compound?
The value was 77%.

And the “Survival time of animals with respect to geom. mean” value (“Survival time … to geom. mean” below) ([1]; p.o. 4×50 mg/kg, significant (&))?
Its value is 135%.

What about the “Relative tumour size (% of control value)” value [1, 4] of the same compound?
The value was 70%.

And the “Survival time … to geom. mean” value [1, 4]?
The value was 134%.

And the “Relative tumour size (% of control value)” value (Sa37 ascitic tumor; assessed day 10, marked ^)?
Its value is 92%.

And the “Survival time … to geom. mean” value (Sa37 ascitic tumor; significant (&))?
The value was 123%.

What about the “% of animals surviving day 35 after transplantation” value (Yoshida's ascitic tumor; [5]) of the same compound?
Its value is 50%.

What about the “Survival time … to geom. mean” value (Yoshida's ascitic tumor; [5]) of the same compound?
Its value is 152%.

And the “% of animals surviving day 35 after transplantation” value (Yoshida's ascitic tumor; [6])?
The value was 40%.

And the “Survival time … to geom. mean” value (Yoshida's ascitic tumor; [6])?
The value was 140%.

What about the “Survival time … to geom. mean” value (Yoshida's ascitic tumor; o. (oral) 5×100 mg/kg, days 1-5, Table III, significant (&)) of the same compound?
Its value is 135%.

And the “Survival time … to geom. mean” value (Yoshida's ascitic tumor; o. (oral) 5×100 mg/kg, days 1-5, Tables I and II, significant (&))?
Its value is 135%.

What about the “Survival time … to geom. mean” value (Yoshida's ascitic tumor; s.c. 5×50 mg/kg, days 1-5, Table III, marked ^) of the same compound?
Its value is 103%.

And the “Survival time … to geom. mean” value (Yoshida's ascitic tumor; s.c. 5×50 mg/kg, days 1-5, Tables I and II, significant (&))?
The value was 177%.

What about the “Survival time … to geom. mean” value ([2]; o. (oral) 8×50 mg/kg, days 5-10,12,13, Table I, significant (&)) of the same compound?
Its value is 131%.

What about the “Relative tumour size (% of control value)” value ([2]; o. (oral) 8×50 mg/kg, days 5-10,12,13, Table I) of the same compound?
The value was 82%.

What about the “Relative tumour size (% of control value)” value ([2]; o. (oral) 8×100 mg/kg, days 5-10,12,13) of the same compound?
The value was 76%.

What about the “Survival time … to geom. mean” value ([2]; o. (oral) 8×100 mg/kg, days 5-10,12,13, significant (&)) of the same compound?
Its value is 112%.

And the “Relative tumour size (% of control value)” value [2, 7]?
Its value is 65%.

And the “Survival time … to geom. mean” value [2, 7]?
Its value is 123%.

What about the “Relative tumour size (% of control value)” value [2, 8] of the same compound?
Its value is 48%.

And the “Survival time … to geom. mean” value [2, 8]?
The value was 125%.

What about the “Survival time … to geom. mean” value ([2]; p.o. 8×50 mg/kg, days 5-10,12,13, Table III, marked ^) of the same compound?
The value was 102%.

And the “Relative tumour size (% of control value)” value ([2]; p.o. 8×50 mg/kg, days 5-10,12,13, Table III, significant (&))?
Its value is 73%.

And the “Survival time … to geom. mean” value ([2]; s.c. 8×50 mg/kg, days 5-10,12,13, Table I, significant (&))?
Its value is 121%.

And the “Survival time … to geom. mean” value ([2]; s.c. 8×50 mg/kg, days 5-10,12,13, Table III, marked ^)?
The value was 107%.

And the “Relative tumour size (% of control value)” value ([2]; s.c. 8×50 mg/kg, days 5-10,12,13, Table I)?
Its value is 66%.

What about the “Relative tumour size (% of control value)” value ([2]; s.c. 8×50 mg/kg, days 5-10,12,13, Table III, significant (&)) of the same compound?
The value was 58%.

And the “Relative tumour size (% of control value)” value ([3]; assessed day 10)?
Its value is 62%.

And the “Survival time … to geom. mean” value [3]?
The value was 128%.

What about the “Survival time of animals with respect to median” value (shortened to “Survival time … to median”) (La leukaemia; s.c. 1×200 mg/kg, day 3 after transplantation, significant vs control (&, P=0.05)) of the same compound?
The value was 113%.

And the “Survival time … to median” value (La leukaemia; s.c. 1×250 mg/kg, day 3, significant (&))?
The value was 500%.

And the “Survival time … to median” value (L1210 leukaemia; s.c. 6×50 mg/kg, significant (&))?
The value was 117%.

What about the “Survival time … to median” value (L1210 leukaemia; s.c. 6×75 mg/kg, significant (&)) of the same compound?
Its value is 142%.

And the “Survival time … to median” value (L1210 leukaemia; s.c. 6×100 mg/kg, significant (&))?
Its value is 142%.

What about the “Survival time … to median” value (L1210 leukaemia; s.c. 6×125 mg/kg, marked ^) of the same compound?
Its value is 168%.

And the IC50 (Yoshida's Tumor)?
Its IC50 is 120 µM.
